This note sets out measurements from patent US5449612A, “Process for identifying candida by means of chromogenic substances” (Serbio, priority 1990, dated 1995).

The subject of test [1] is C. zeylanoides. Nature of the test: Diagnosis from isolated colonies on gelose 2/5. In kind it is cell-based, Candida zeylanoides. To be noted: Table VI, 1 strain, gelose 2.
The subject of test [2] is C. albicans. Nature of the test: Diagnosis from non-isolated colonies on gelose 2/5. In kind it is cell-based, Candida albicans.
Test [3] relates to C. krusei. Description: Diagnosis from non-isolated colonies on gelose 2/5. In kind it is cell-based, Candida krusei. To be noted: non-isolated colonies. The procedure: (§1) According to the afore-mentioned best mode of carrying out the invention, a culture medium containing the following ingredients is prepared; it is called gelose 2 below and is buffered to pH 6.0.
(§2) According to the afore-mentioned best mode of carrying out the invention, a culture medium containing the following ingredients is prepared; it is called gelose 5 below and is buffered to pH 6.0.
A mixture of several non-isolated strains of C. albicans, C. tropicalis, C. krusei, C. guillermondii, C. pseudotropicalis, C. parapsilosis, Cryptococcus neoformaas, Torulopsis glabrata and Trichosporon cutaneum was inoculated and incubated on the culture media according to Examples 1 to 5, containing the substrate N-Ac-β-D-galactosaminide-PNP of the prior art or the substrate H-Pro-pNA.AcOH according to the invention. The results, which were obtained particularly with geloses 2 and 5, are collated in Table VIII below, where the TTC column relates to results of tests undertaken separately on a standard gelose medium containing TTC.
(§3) A mixture of several non-isolated strains of C. albicans, C. tropicalis, C. krusei, C. guillermondii, C. pseudotropicalis, C. parapsilosis, C. zeylanoides, C. ciferii, C. cerevisiae, Torulopsis glabrata and Trichosporon cutaneum was inoculated and incubated on the culture media according to Example 5, containing the substrate N-Ac-β-D-galactosaminide-PNP of the prior art or the substrate H-Pro-pNA.AcOH according to the invention.

The test system of a further test is Cr. neoformans. Nature of the test: Diagnosis from non-isolated colonies on gelose 2/5. The settings on record: Table VIII, 1 strain, gelose 2. In kind it is cell-based, Cryptococcus neoformans.
Test [4] has as its system Tr. cutaneum. Nature of the test: Diagnosis from non-isolated colonies on gelose 2/5. Format: cell-based, Trichosporon cutaneum. To be noted: 2 strains.
In test [5] the test system is C. tropicalis. Description: Diagnosis from non-isolated colonies on gelose 2/5. In kind it is cell-based, Candida tropicalis. To be noted: 1 strain.
Test [6] deals with C. parapsilosis. Nature of the test: Diagnosis from isolated colonies on gelose 2/5. In kind it is cell-based, Candida parapsilosis. To be noted: Table VI, 5 strains, gelose 2.
Test [7] relates to C. tropicalis. Nature of the test: Diagnosis from isolated colonies on gelose 2/5. The settings on record: gelose 2; for Reading at t = 24 h: isolated colonies. In kind it is cell-based, Candida tropicalis.
In test [8] the test system is T. glabrata. Description: Diagnosis from isolated colonies on gelose 2/5. In kind it is cell-based, Torulopsis glabrata. To be noted: isolated colonies, gelose 2.
The subject of test [9] is C. guillermondii. Nature of the test: Diagnosis from non-isolated colonies on gelose 2/5. In kind it is cell-based, Candida guillermondii. To be noted: 1 strain.
For test [10], the system named is C. pseudotropicalis. Description: Diagnosis from isolated colonies on gelose 2/5. Format: cell-based, Candida pseudotropicalis. The settings on record: Table VI, 2 strains, gelose 2.
The next test relates to C. ciferii. Description: Diagnosis from non-isolated colonies on gelose 5. To be noted: Table IX, 1 strain, gelose 5, cycloheximide. In kind it is cell-based.
Test [11] deals with C. guillermondii. Nature of the test: Diagnosis from isolated colonies on gelose 2/5. In kind it is cell-based, Candida guillermondii. The settings on record: Table VI, 2 strains, gelose 2.
For test [12], the system named is C. albicans. Description: Diagnosis from isolated colonies on gelose 2/5. In kind it is cell-based, Candida albicans. To be noted: isolated colonies, gelose 2.
Test [13] has as its system C. krusei. Nature of the test: Diagnosis from isolated colonies on gelose 2/5. Format: cell-based, Candida krusei. The settings on record: isolated colonies, gelose 2. The procedure: as §1, §2
Several isolated strains of C. albicans, C. tropicalis, C. krusei, C. guillermondii, C. pseudotropicalis, C. parapsilosis, C. zeylanoides, T. glabrata and Trichosporon cutaneum were inoculated and incubated on the media of Examples 1 to 5. […] Part of the results obtained has been collated in Table VI below, where the TTC column relates to results of tests undertaken separately on a standard gelose medium containing TTC.
Several isolated strains of C. albicans, C. tropicalis, C. krusei, C. guillermondii and T. glabrata were inoculated and incubated on the media of Example 2 [containing either the substrate N-Ac-β-D-galactosaminide-PNP of the prior art, or the substrates H-L-PropNA.AcOH (specific for C. albicans), EM-L-Phg-L-ArgpNA.AcOH (specific for T. glabrata) and H-Gly-L-Pro-L-Arg-pNA.2AcOH (specific for C. krusei)]and of Example 5 (containing the substrate H-L-Pro-pNA.AcOH).

For another test, the system named is C. cerevisiae. Nature of the test: Diagnosis from non-isolated colonies on gelose 5. In kind it is cell-based. To be noted: Table IX; non-isolated colonies, 1 strain; gelose 5, cycloheximide. Here is the method:
as §2, §3

The test system of test [14] is T. glabrata. Nature of the test: Diagnosis from non-isolated colonies on gelose 2/5. The settings on record: 8 strains. Format: cell-based, Torulopsis glabrata.
Test [15] relates to C. parapsilosis. Nature of the test: Diagnosis from non-isolated colonies on gelose 2/5. In kind it is cell-based, Candida parapsilosis.
The subject of test [16] is C. pseudotropicalis. Nature of the test: Diagnosis from non-isolated colonies on gelose 2/5. Format: cell-based, Candida pseudotropicalis.
Test [17] concerns C. zeylanoides. Nature of the test: Diagnosis from non-isolated colonies on gelose 5. In kind it is cell-based, Candida zeylanoides. The settings on record: Table IX, 1 strain, gelose 5, cycloheximide.
Test [18] relates to Tr. cutaneum. Nature of the test: Diagnosis from isolated colonies on gelose 2/5. In kind it is cell-based, Trichosporon cutaneum. The settings on record: Table VI, 1 strain, gelose 2.
A further test deals with Candida tropicalis. Nature of the test: Tests on substrates against Candida tropicalis, colour reading on buffered gelose. Format: cell-based. The settings on record: Table III; medium pH 6.0.
The subject of test [19] is T. glabrata. Description: Tests on substrates against T. glabrata, colour reading on buffered gelose. Further: key: -: none; +: weak; ++: moderate; +++: intense; ++++: very intense. In kind it is cell-based, Torulopsis glabrata. To be noted: Table III; medium pH 6.0.
[20] abbreviates: Table IX, 1 strain, gelose 5, cycloheximide.
[21] abbreviates: Table IX, gelose 5, cycloheximide.

With `CC(=O)N[C@H]1[C@H](Oc2ccc([N+](=O)[O-])cc2)O[C@H](CO)[C@H](O)[C@@H]1O` [NAc-D-galactosaminide-PNP, N-Ac-β-D-galactosaminide-PNP, reference compound], the “Reading at t = 24 h” value in the test with C. zeylanoides [1] was “-”; in the test on C. albicans [2] (Table IX, 89 strains, gelose 5, cycloheximide), “++++ and negative for 2 out of 89 strains”; in the test on C. albicans [2] (Table VIII, 13 strains, gelose 2) it was “++++”; in the test with C. krusei [3] (setting [20]), “-”; in the test with C. krusei [3] (Table VIII, 6 strains, gelose 2), “-”; in the test with Cr. neoformans it was “-”. The “Reading at t = 24 h” value in the test on Tr. cutaneum [4] (setting [21]) was “-”; in the test with Tr. cutaneum [4] (Table VIII, gelose 2), “- result for 1 strain and +++ result for the other strain”; in the test with C. tropicalis [5] (setting [21]), “-”; with C. tropicalis [5] (Table VIII, gelose 2) it was “-”; in the test on C. parapsilosis [6] it was “-”; with C. tropicalis [7] (Table VI, 4 strains), 3 gave the result - and 1 the result ++. The “Reading at t = 24 h” value with C. tropicalis [7] (Table VII, 9 strains) was “positive (++) for only 1 of the 9 strains tested and negative”; with T. glabrata [8] (Table VI, 4 strains) it was “-”; in the test on T. glabrata [8] (Table VII, 9 strains), “-”; with C. guillermondii [9] (setting [21]), “-”; with C. guillermondii [9] (Table VIII, gelose 2), “-”; in the test on C. pseudotropicalis [10], “-”. Also, the “Reading at t = 24 h” value in the test on C. ciferii was “-”; with C. guillermondii [11], “-”; with C. albicans [12] (Table VI, 10 strains) it was “++++”; in the test on C. albicans [12] (Table VII, 6 strains) it was “+++”; in the test with C. krusei [13] (Table VI, 4 strains), “-”; with C. krusei [13] (Table VII, 6 strains), “-”. The “Reading at t = 24 h” value in the test with C. cerevisiae is “-”; in the test on T. glabrata [14] (setting [21]), “-”; in the test with T. glabrata [14] (Table VIII, gelose 2), “-”; in the test on C. parapsilosis [15] (setting [20]) it was “-”; with C. parapsilosis [15] (Table VIII, 2 strains, gelose 2), “-”; with C. pseudotropicalis [16] (Table IX, 2 strains, gelose 5, cycloheximide) it was “-”. In addition, the “Reading at t = 24 h” value in the test on C. pseudotropicalis [16] (Table VIII, 1 strain, gelose 2) was “-”; in the test with C. zeylanoides [17], “-”; in the test on Tr. cutaneum [18], “++”.
As for EM-L-Phg-L-Arg-pNA.AcOH, the “C. TROPICALIS reading at 24 h” value with Candida tropicalis is recorded as “+++”. In addition, the “T. GLABRATA reading at 24 h” value in the test with T. glabrata [19] is “++++”. Moreover, the “hydrolysis by the strains of C. tropicalis” value in the test on C. tropicalis [7] (Example 7, isolated strains) is “hydrolyzed”. The “Reading at t = 24 h” value in the test with C. tropicalis [7] (Table VII, 9 strains) is “++”; with T. glabrata [8] (Table VII, 9 strains) it was “+++”; in the test on C. albicans [12] (Table VII, 6 strains) it was “-”; with C. krusei [13] (Table VII, 6 strains) it was “-”.
